Source: US11752188B2, “Compositions and methods for nutritional supplements” (DailyColors Health Inc., priority 2020, dated 2023)

Legend:
recombinant human CD73 = molecular target: T1, recombinant human CD73 (Homo sapiens, UniProt P21589); assay: CD73 in vitro enzymatic assay (colorimetric 630 nm); format: biochemical
T1 construct: purchased BPS Bioscience 71184 (enzyme); kit #72055
T1 sequence (P21589 27-549): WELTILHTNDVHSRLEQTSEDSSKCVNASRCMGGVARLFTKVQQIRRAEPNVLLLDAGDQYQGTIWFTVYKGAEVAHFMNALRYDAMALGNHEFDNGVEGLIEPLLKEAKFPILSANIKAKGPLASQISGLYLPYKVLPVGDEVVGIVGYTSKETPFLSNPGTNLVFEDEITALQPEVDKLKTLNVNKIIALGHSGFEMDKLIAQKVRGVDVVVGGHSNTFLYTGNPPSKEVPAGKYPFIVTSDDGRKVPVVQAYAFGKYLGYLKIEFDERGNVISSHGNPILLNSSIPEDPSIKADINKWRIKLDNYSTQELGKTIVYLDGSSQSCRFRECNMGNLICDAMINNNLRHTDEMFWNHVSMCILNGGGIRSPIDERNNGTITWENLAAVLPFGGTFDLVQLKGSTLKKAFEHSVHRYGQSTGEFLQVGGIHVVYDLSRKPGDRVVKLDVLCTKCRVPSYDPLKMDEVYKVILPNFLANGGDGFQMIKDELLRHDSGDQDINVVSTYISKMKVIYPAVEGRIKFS
Description: Here, D5 is the Yellow Blend, D9 is the Purple Blend, D21 is the Green Blend, D13 is the Red Blend, and D31 is CBD. As before, the red blend included Apple Extract, Pomegranate Extract, Tomato Powder, Beet; the green blend included Olive Extract, Rosemary Extract, Green Coffee Bean Extract, Kale; the orange/yellow blend included Onion Extract, Ginger Extract, Grapefruit Extract, Carrot; and the purple/blue blend included Grape, Blueberry Extract, Currant, Elderberry.
Assay Conditions: In general, all assays points were done by following the CD39 and CD73 Inhibitor Screening Assay Kit protocol (BPS Bioscience, #79278 and 72055, respectively). The CD73 enzymatic reactions were conducted in duplicate at room temperature for 30 minutes in a 50 μl mixture containing assay buffer, […], CD73 enzymes, and the test compound. Test compounds were preincubated with the enzyme for 30 minutes. Reactions were started by addition of the substrate. The 50 μl reactions were carried out in a 96-well transparent plate. After enzymatic reactions, 100 μl of Colorimetric Detection Reagent was added to the reaction mix. After a 15 minutes incubation, absorbance was measured using a Tecan plate reader at 630 nm.
Data Analysis: Enzyme activity assays were performed in duplicates at each concentration. The Absorbance intensity data were analyzed and compared. In the absence of the compound, the intensity in each data set was defined as 100% (Ce) activity. In the absence of enzyme, the intensity in each data set was defined as 0% (C0) activity.

recombinant human CD39 = molecular target: T2, recombinant human CD39 (Homo sapiens, UniProt P49961); assay: CD39 in vitro enzymatic assay (ATP, colorimetric 630 nm); format: biochemical; settings: TABLE 81;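 also: test compound preincubated 30 min with enzyme, then 30 min reaction with ATP at room temperature, absorbance after detection reagent, 100% activity without compound, 0% without enzyme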
T2 construct: purchased BPS Bioscience 71284 (enzyme); kit #79278
T2 sequence (P49961 1-510): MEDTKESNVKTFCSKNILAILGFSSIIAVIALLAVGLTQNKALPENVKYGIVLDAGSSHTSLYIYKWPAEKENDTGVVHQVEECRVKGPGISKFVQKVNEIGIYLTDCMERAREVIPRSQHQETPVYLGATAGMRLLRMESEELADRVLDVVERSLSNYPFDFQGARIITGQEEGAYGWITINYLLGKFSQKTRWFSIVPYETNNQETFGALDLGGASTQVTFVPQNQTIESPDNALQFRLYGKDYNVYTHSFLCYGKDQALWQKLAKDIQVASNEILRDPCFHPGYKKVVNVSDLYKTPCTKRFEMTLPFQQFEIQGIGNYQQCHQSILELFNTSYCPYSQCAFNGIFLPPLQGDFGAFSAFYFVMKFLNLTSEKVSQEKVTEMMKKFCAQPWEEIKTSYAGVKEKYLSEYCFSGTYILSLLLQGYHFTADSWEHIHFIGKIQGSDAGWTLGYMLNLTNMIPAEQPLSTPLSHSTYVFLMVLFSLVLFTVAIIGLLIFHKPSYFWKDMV
Description: The CD39 enzymatic reactions were conducted in duplicate at room temperature for 30 minutes in a 50 μl mixture containing assay buffer, ATP, CD39 enzymes, and the test compound. Test compounds were preincubated with the enzyme for 30 minutes. Reactions were started by addition of the substrate. The 50 μl reactions were carried out in a 96-well transparent plate. After enzymatic reactions, 100 μl of Colorimetric Detection Reagent was added to the reaction mix. After a 15 minutes incubation, absorbance was measured using a Tecan plate reader at 630 nm.

Q: For `Nc1ncnc2c1ncn2[C@@H]1O[C@H](COP(=O)(O)CP(=O)(O)O)[C@@H](O)[C@H]1O` [AMPCP], which “Activity (%) Repeat 1” value (recombinant human CD73; 0.1 μM, TABLE 93) is on record?
A: 81%

Q: What about the “Activity (%) Repeat 2” value (recombinant human CD73; 0.1 μM, TABLE 93) of the same molecule?
A: 96%

Q: And the “Inhibition (%)” value (recombinant human CD73; 0.1 μM, TABLE 93)?
A: 12%

Q: And the “Net Signal (Absorbance) Repeat 1” value (recombinant human CD73; 0.1 μM, TABLE 93)?
A: 0.14

Q: And the “Net Signal (Absorbance) Repeat 2” value (recombinant human CD73; 0.1 μM, TABLE 93)?
A: 0.17

Q: What about the “Activity (%) Rep. 1” value (recombinant human CD73; 1 μM, TABLE 90) of the same molecule?
A: 92%

Q: And the “Activity (%) Rep. 2” value (recombinant human CD73; 1 μM, TABLE 90)?
A: 96%

Q: What about the “Inhibition (%)” value (recombinant human CD73; 1 μM, TABLE 90) of the same molecule?
A: 6%

Q: What about the “Net absorbance Rep. 1” value (recombinant human CD73; 1 μM, TABLE 90) of the same molecule?
A: 0.368

Q: What about the “Net absorbance Rep. 2” value (recombinant human CD73; 1 μM, TABLE 90) of the same molecule?
A: 0.383

Q: And the “Activity (%) Rep. 1” value (recombinant human CD73; 1 μM, TABLE 91)?
A: 89%

Q: And the “Activity (%) Rep. 2” value (recombinant human CD73; 1 μM, TABLE 91)?
A: 89%

Q: What about the “Inhibition (%)” value (recombinant human CD73; 1 μM, TABLE 91) of the same molecule?
A: 11%

Q: What about the “Net absorbance Rep. 1” value (recombinant human CD73; 1 μM, TABLE 91) of the same molecule?
A: 0.30

Q: And the “Net absorbance Rep. 2” value (recombinant human CD73; 1 μM, TABLE 91)?
A: 0.30

Q: What about the “Activity (%) Repeat 1” value (recombinant human CD73; 1 μM, TABLE 93) of the same molecule?
A: 53%

Q: And the “Activity (%) Repeat 2” value (recombinant human CD73; 1 μM, TABLE 93)?
A: 64%

Q: What about the “Inhibition (%)” value (recombinant human CD73; 1 μM, TABLE 93) of the same molecule?
A: 41%

Q: What about the “Net Signal (Absorbance) Repeat 1” value (recombinant human CD73; 1 μM, TABLE 93) of the same molecule?
A: 0.09

Q: And the “Net Signal (Absorbance) Repeat 2” value (recombinant human CD73; 1 μM, TABLE 93)?
A: 0.11

Q: What about the “Activity (%) Rep. 1” value (recombinant human CD73; 10 μM, TABLE 90) of the same molecule?
A: 74%

Q: What about the “Activity (%) Rep. 2” value (recombinant human CD73; 10 μM, TABLE 90) of the same molecule?
A: 76%

Q: What about the “Inhibition (%)” value (recombinant human CD73; 10 μM, TABLE 90) of the same molecule?
A: 25%

Q: What about the “Net absorbance Rep. 1” value (recombinant human CD73; 10 μM, TABLE 90) of the same molecule?
A: 0.298

Q: What about the “Net absorbance Rep. 2” value (recombinant human CD73; 10 μM, TABLE 90) of the same molecule?
A: 0.306

Q: And the “Activity (%) Rep. 1” value (recombinant human CD73; 10 μM, TABLE 91)?
A: 52%

Q: What about the “Activity (%) Rep. 2” value (recombinant human CD73; 10 μM, TABLE 91) of the same molecule?
A: 59%

Q: And the “Inhibition (%)” value (recombinant human CD73; 10 μM, TABLE 91)?
A: 45%

Q: What about the “Net absorbance Rep. 1” value (recombinant human CD73; 10 μM, TABLE 91) of the same molecule?
A: 0.18

Q: What about the “Net absorbance Rep. 2” value (recombinant human CD73; 10 μM, TABLE 91) of the same molecule?
A: 0.20

Q: And the “Activity (%) Repeat 1” value (recombinant human CD73; 10 μM, TABLE 93)?
A: 20%

Q: And the “Activity (%) Repeat 2” value (recombinant human CD73; 10 μM, TABLE 93)?
A: 28%

Q: And the “Inhibition (%)” value (recombinant human CD73; 10 μM, TABLE 93)?
A: 76%

Q: What about the “Net Signal (Absorbance) Repeat 1” value (recombinant human CD73; 10 μM, TABLE 93) of the same molecule?
A: 0.04

Q: What about the “Net Signal (Absorbance) Repeat 2” value (recombinant human CD73; 10 μM, TABLE 93) of the same molecule?
A: 0.05

Q: And the “Activity (%) Rep. 1” value (recombinant human CD73; 100 μM, TABLE 90)?
A: 17%

Q: What about the “Activity (%) Rep. 2” value (recombinant human CD73; 100 μM, TABLE 90) of the same molecule?
A: 22%

Q: What about the “Inhibition (%)” value (recombinant human CD73; 100 μM, TABLE 90) of the same molecule?
A: 80%

Q: And the “Net absorbance Rep. 1” value (recombinant human CD73; 100 μM, TABLE 90)?
A: 0.071

Q: And the “Net absorbance Rep. 2” value (recombinant human CD73; 100 μM, TABLE 90)?
A: 0.089

Q: And the “Activity (%) Rep. 1” value (recombinant human CD73; 100 μM, TABLE 91)?
A: 13%

Q: What about the “Activity (%) Rep. 2” value (recombinant human CD73; 100 μM, TABLE 91) of the same molecule?
A: 12%

Q: And the “Inhibition (%)” value (recombinant human CD73; 100 μM, TABLE 91)?
A: 88%

Q: And the “Net absorbance Rep. 1” value (recombinant human CD73; 100 μM, TABLE 91)?
A: 0.04

Q: And the “Net absorbance Rep. 2” value (recombinant human CD73; 100 μM, TABLE 91)?
A: 0.04

Q: `C=C(C)[C@@H]1CCC(C)=C[C@H]1c1c(O)cc(CCCCC)cc1O` [D31, CBD] was tested. Which “Activity (%) Rep. 1” value (recombinant human CD39; 0.0004%) did it give?
A: 93%

Q: And the “Activity (%) Rep. 2” value (recombinant human CD39; 0.0004%)?
A: 91%

Q: What about the “Inhibition (%)” value (recombinant human CD39; 0.0004%) of the same molecule?
A: 8%

Q: What about the “Net absorbance Rep. 1” value (recombinant human CD39; 0.0004%) of the same molecule?
A: 0.50

Q: And the “Net absorbance Rep. 2” value (recombinant human CD39; 0.0004%)?
A: 0.49

Q: What about the “Activity (%) Rep. 1” value (recombinant human CD39; 0.002%) of the same molecule?
A: 90%

Q: What about the “Activity (%) Rep. 2” value (recombinant human CD39; 0.002%) of the same molecule?
A: 92%

Q: And the “Inhibition (%)” value (recombinant human CD39; 0.002%)?
A: 9%

Q: And the “Net absorbance Rep. 1” value (recombinant human CD39; 0.002%)?
A: 0.48

Q: And the “Net absorbance Rep. 2” value (recombinant human CD39; 0.002%)?
A: 0.49

Q: What about the “Activity (%) Rep. 1” value (recombinant human CD39; 0.01%) of the same molecule?
A: 96%

Q: What about the “Activity (%) Rep. 2” value (recombinant human CD39; 0.01%) of the same molecule?
A: 103%

Q: And the “Inhibition (%)” value (recombinant human CD39; 0.01%)?
A: 1%

Q: What about the “Net absorbance Rep. 1” value (recombinant human CD39; 0.01%) of the same molecule?
A: 0.52

Q: And the “Net absorbance Rep. 2” value (recombinant human CD39; 0.01%)?
A: 0.55

Q: And the “Activity (%) Rep. 1” value (recombinant human CD73; 0.0004%, TABLE 91)?
A: 104%

Q: And the “Activity (%) Rep. 2” value (recombinant human CD73; 0.0004%, TABLE 91)?
A: 101%

Q: What about the “Inhibition (%)” value (recombinant human CD73; 0.0004%, TABLE 91) of the same molecule?
A: 0%

Q: What about the “Net absorbance Rep. 1” value (recombinant human CD73; 0.0004%, TABLE 91) of the same molecule?
A: 0.35

Q: And the “Net absorbance Rep. 2” value (recombinant human CD73; 0.0004%, TABLE 91)?
A: 0.34

Q: What about the “Activity (%) Rep. 1” value (recombinant human CD73; 0.002%, TABLE 91) of the same molecule?
A: 103%

Q: And the “Activity (%) Rep. 2” value (recombinant human CD73; 0.002%, TABLE 91)?
A: 100%

Q: And the “Inhibition (%)” value (recombinant human CD73; 0.002%, TABLE 91)?
A: 0%

Q: What about the “Net absorbance Rep. 1” value (recombinant human CD73; 0.002%, TABLE 91) of the same molecule?
A: 0.35

Q: What about the “Net absorbance Rep. 2” value (recombinant human CD73; 0.002%, TABLE 91) of the same molecule?
A: 0.34

Q: And the “Activity (%) Rep. 1” value (recombinant human CD73; 0.01%, TABLE 91)?
A: 106%

Q: And the “Activity (%) Rep. 2” value (recombinant human CD73; 0.01%, TABLE 91)?
A: 98%

Q: What about the “Inhibition (%)” value (recombinant human CD73; 0.01%, TABLE 91) of the same molecule?
A: 0%

Q: And the “Net absorbance Rep. 1” value (recombinant human CD73; 0.01%, TABLE 91)?
A: 0.35

Q: What about the “Net absorbance Rep. 2” value (recombinant human CD73; 0.01%, TABLE 91) of the same molecule?
A: 0.33
